Tests used:
recombinant human PKR = recombinant human PKR (Homo sapiens, UniProt P30613); assay: pyruvate kinase (PKR) activity test, activation of recombinant enzyme (fluorescence kit); format: biochemical
Protocol: To test the activation effect of the compound of the present disclosure on recombinant human PKR.
3.1 A recombinant human PKR enzyme solution was prepared at a concentration of 60 ng/well (a 20 µL reaction system), and 5 µL of the solution was added into each well of a black transparent bottom 384-well plate.
3.2 Compound solutions were prepared at different concentrations, with the final concentrations of 1000/300/100 nM (containing 1% DMSO). Each 5 µL of the compound solution was added into the plate in step 3.1 and mixed well. The plate was incubated at room temperature for 10 min.
3.3 A reaction system was prepared according to the instructions of a kit (as shown in the table below), and 10 µL of the reaction system was added into each well of the 384-well plate, and mixed uniformly with the solution in step 3.2.
3.4 The 384-well plate was placed on a microplate reader to detect the fluorescence value at 540/590 nm, where the value was read every 2 minutes and the detection was conducted continuously for 1 hour.
3.5 The Slope value within the detection time was calculated, and the 1% DMSO well was used as a control well to calculate a compound activation rate. Activation rate % = (Slopeofcompoundwell/Slopeofcontrolwell) × 100% [formula]
With the log value of the compound concentration as the X axis and the percentage activation rate as the Y axis, a dose-effect curve was fitted with the log(agonist) vs. response-variable slope of the analysis software GraphPad Prism 5, and the AC50 value of the activity of each compound against PKR was obtained. Y = min + (max−min)/(1+10^(∧)((LogAC50−X)×Hillslope)). [formula]

[1] = target: T1, PKR in ex vivo red blood cells from healthy individuals (Homo sapiens, UniProt P30613); assay: ex vivo pyruvate kinase (PKR) activity experiment, red blood cells of healthy individuals; format: cell-based; conditions: 3 hours co-cultivation
T1 construct: endogenous in cells; host or cells: human red blood cells isolated from fresh peripheral blood of healthy individuals
T1 sequence (P30613 whole entry): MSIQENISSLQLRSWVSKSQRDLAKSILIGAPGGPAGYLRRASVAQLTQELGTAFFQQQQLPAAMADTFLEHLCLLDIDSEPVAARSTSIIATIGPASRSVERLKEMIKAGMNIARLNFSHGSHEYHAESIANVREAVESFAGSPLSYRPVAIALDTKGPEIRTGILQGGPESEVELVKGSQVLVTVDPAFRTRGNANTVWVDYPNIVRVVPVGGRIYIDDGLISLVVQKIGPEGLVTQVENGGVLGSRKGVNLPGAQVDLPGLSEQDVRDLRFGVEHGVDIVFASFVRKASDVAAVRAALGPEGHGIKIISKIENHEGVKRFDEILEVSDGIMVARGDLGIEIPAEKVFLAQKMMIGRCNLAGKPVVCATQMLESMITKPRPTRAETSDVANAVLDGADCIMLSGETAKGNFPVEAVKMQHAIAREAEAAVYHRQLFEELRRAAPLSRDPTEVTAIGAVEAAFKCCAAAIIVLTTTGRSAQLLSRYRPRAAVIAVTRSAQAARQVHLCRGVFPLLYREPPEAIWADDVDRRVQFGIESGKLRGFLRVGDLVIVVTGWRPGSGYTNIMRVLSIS
In short: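 Washed, Percoll-purified human RBCs at 1 × 10^7 cells/mL were exposed to compound (final 1–3000 nM, 1% DMSO) for 3 h at 37°C, then lysed. PKR activity in lysate was followed kinetically by fluorescence at 540/590 nm over 1 h. Slope versus 1% DMSO control gave % activation; AC50 from variable-slope fit.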

[2] = Phase II clinical studies, at week 12; cited from earlier work

recombinant human PKR, sequence (P30613 whole entry): as above

AC50 (recombinant human PKR)	AC50 [1]	Structure (SMILES)	average increase in HGB [2]	patients achieved an increase in HGB of 1.0 g/dL [2]
< 0.1 µM	< 0.1 µM	CCOc1ccc(S(=O)(=O)N2CC(=C3CN(C(=O)[C@H](CO)c4ccccc4)C3)C2)nc1 [Compound 72, (S)-1-(1'-((5-ethoxypyridin-2-yl)sulfonyl)-1',4'-dihydro-2H,2'H-[3,3'-diazetidinylidene]-1(4H)-yl)-3-hydroxy-2-phenylpropan-1-one]		
0.101 to 0.3 µM	0.101 to 0.3 µM	O=C(C(CF)c1ccccc1)N1CC(=C2CN(S(=O)(=O)c3ccccn3)C2)C1 (stereo not drawn) [Compound 73, 3-fluoro-2-phenyl-1-(1'-(pyridin-2-ylsulfonyl)-1',4'-dihydro-2H,2'H-[3,3'-diazetidinylidene]-1(4H)-yl)propan-1-one]		
0.3 to 1 µM	0.3 to 1 µM	O=C(c1c[nH]c2ccccc12)N1CC(=C2CN(S(=O)(=O)c3ccccn3)C2)C1 [Compound 56, (1H-indol-3-yl)(1'-(pyridin-2-ylsulfonyl)-1',4'-dihydro-2H,2'H-[3,3'-diazetidinylidene]-1(4H)-yl)met hanone]		
0.101 to 0.3 µM	0.101 to 0.3 µM	O=C(N1CC(=C2CN(S(=O)(=O)c3ccccn3)C2)C1)C1(c2ccccc2)CCOCC1 [Compound 58]		

Further lines, the compound ahead of its results:

Structure (SMILES)	AC50 (recombinant human PKR)	AC50 [1]	average increase in HGB [2]	patients achieved an increase in HGB of 1.0 g/dL [2]
O=C(N1CC(=C2CN(S(=O)(=O)c3ccc4ncsc4c3)C2)C1)C1(c2ccccc2)CCOCC1 [Compound 29, (1'-(benzo[d]thiazol-6-ylsulfonyl)-1',4'-dihydro-2H,2'H-[3.3'-diazetidinylidene]-1(4H)-yl)(4-phenyltetrahydro-2H-pyran-4-yl)methanone]	< 0.1 µM	< 0.1 µM		
NC(C(=O)N1CC(=C2CN(S(=O)(=O)c3ccc(OC(F)F)cc3)C2)C1)c1ccccc1 (stereo not drawn) [Compound 21, 2-amino-1-(1'-((4-(difluoromethoxy)phenyl)sulfonyl)-1',4'-dihydro-2H,2'H-[3,3'-diazetidinylidene]-1 (4H)-yl)-2-phenylethan-1-one]	0.3 to 1 µM	< 0.1 µM		
COc1ccc(C(CO)C(=O)N2CC(=C3CN(S(=O)(=O)c4ccccn4)C3)C2)cc1 (stereo not drawn) [Compound 53, 3-hydroxy-2-(4-methoxyphenyl)-1-(1'-(pyridin-2-ylsulfonyl)-1',4'-dihydro-2H,2'H-[3,3'-diazetidinylidene]-1(4H)-yl)propan-1-one]	0.3 to 1 µM	0.101 to 0.3 µM		
O=C(c1ccc(NS(=O)(=O)c2cccc3cccnc23)cc1)N1CCN(CC2CC2)CC1 [Mitapivat]			1.34 g/dL	92.3%
Cc1nc2ccc(S(=O)(=O)N3CC(=C4CN(C(=O)[C@H](CO)c5ccccc5)C4)C3)cc2s1 [Compound 35, (S)-3-hydroxy-1-(1'-((2-methylbenzo[d]thiazol-6-yl)sulfonyl)-1',4'-dihydro-2H,2'H-[3,3'-diazetidinylidene]-1(4H)-yl)-2-phenylpropan-1-one]	< 0.1 µM	< 0.1 µM		

— patent EP4721737A1, “USE OF PHARMACEUTICAL COMPOSITION COMPRISING COMPOUND HAVING BIS(AZANYLYLIDENE) SULFONYL STRUCTURE FOR TREATING ANEMIA-RELATED DISEASES” (Scinnohub Pharmaceutical Co., Ltd., priority 2023, dated 2024)
